Assay results reported in US20080112915A1, “Dna Delivery with Gemini Cationic Surfactants” (priority 2003, published 2008).

Legend:
[1] = cited from earlier work; for Γ × 10^6 (surface excess concentration): from Alami et al., 1993; for CMC (critical micellar concentration) / a (head group areas based on activity) / α (degree of micelle ionization): from Wettig et al., 2001; for Krafft point: from Zana; for Krafft point / distance between the cationic head groups: 2002; for distance between the cationic head groups: estimated, Chen et al.
[2] = tested on: PAM212 cells; assay: Transfection of PAM212 cells with pGTmCMV.IFN-GFP plasmid using gemini cationic surfactants and DOPE; IFNγ by ELISA; format: cell-based, murine; details: for IFN-γ expression: PAM212 cells, pGTmCMV.IFN-GFP, plasmid-gemini surfactant charge ratio 1:10 in 1 mM DOPE vesicles; for transfection efficiency (in words): dependence on spacer length, charge ratio 1:10, DOPE; for IFNγ levels versus the other compounds with longer linkers: p<0.001
Experimental: The pGTmCMV.IFN-GFP plasmid was used at a concentration of 0.2 μg/well for transfection. Eight gemini surfactants were tested in this study (FIG. 1) (Wettig et al., 2001). Aqueous solutions (1.5 mM) of the gemini cationic surfactants were prepared and filtered through 0.2 μm Acrodisc® filters (Pall Gelman, Ann Arbor, Mich.). Lipid vesicles were prepared by using sonication techniques. 1,2 dioleyl-sn-glycero-phosphatidylethanolamine (DOPE) (Avanti Polar Lipids, Alabaster, Ala.) and α-tocopherol (Spectrum, Gardena Calif.) in 1:0.2 weight ratios were dissolved in 100% ethanol (Commercial Alcohols Inc., Brampton, ON) at a concentration of 10 mg lipid/mL in a round bottom flask. The solvent was evaporated in a rotary evaporator (Rotavapor RE111 BÜCHI Laboratoriums-Technik AG, Switzerland) at 100 rpm and 55° C. to deposit a thin film on the walls of the vessel. To remove traces of organic solvent, the lipid was lyophilized overnight. Glass beads were added to the flask and the lipid was resuspended at 1 μmol/mL concentration in 9.25% w/v isotonic sucrose (Spectrum, Gardena, Calif.) solution (pH 9). The suspensions were bath-sonicated (Branson 2200, Cleansonic Orange, Va.) for 3 hours at 55° C., followed by filtration through 0.45 μm Acrodisc® filters. PAM 212 murine keratinocyte cells were prepared for transfection as described earlier.
The transfection mixtures were prepared as follows: 0.2 μg of plasmid was mixed with aliquots of gemini surfactant solution to obtain plasmid DNA:gemini surfactant charge ratios of 1:5, 1:10, 1:20 or 1:40 and incubated at room temperature for 15 minutes. To this mixture, 25 μL of DOPE liposomes were added. The transfection mixtures were incubated for 30 minutes at room temperature prior to transfection and added to the cells, dropwise. The plates were incubated for periods of 5 or 6-24 hours at 37° C. in a CO2 incubator. The transfection mix was replaced with supplemented MEM and the plates further incubated for 24 hours. The supernatants were collected and stored at −20° C. As a positive control, the cells were transfected with Lipofectamine Plus™ Reagent, as described above.
ELISAs were performed using round bottom 96-well plates (Immulon II, Dynatech Laboratories, Chantilly, Va.). The plates were coated with 50 μL/well of capture antibody, rat anti-mouse IFNγ (Pharmingen, Mississauga, ON) 2 μg/mL coating buffer and incubated for 24 hours at 4° C. The wells were blocked with 1% bovine serum albumin (BSA) (New England Biolabs, Mississauga, ON) solution in PBS at room temperature for one hour. IFNγ standard (Pharmingen) of 250-2000 pg/mL concentration and was used in 1% BSA solution on plates. Protein resuspension buffer was used as a blank control. The supernatants from cell cultures and the skin and lymph homogenates, as well as the serum from mice, were diluted one in four on the plates and incubated overnight at 4° C. Biotinylated rat anti mouse IFNγ (Pharmingen) was added at […] concentration in 1% BSA solution. The plates were incubated for a further 2 h at room temperature. The streptavidin-alkaline phosphatase conjugate (Jackson Immuno Research Laboratories, Inc., West Grove, Pa.) was added in 1:5000 dilution and incubated for 1 h at room temperature, followed by addition of 4-nitrophenyl phosphate di(tris) salt 1 mg/mL in PNPP buffer (1% diethanolamine, 0.5 mM MgCl2, pH 9.8) (Sigma). Optical density of the samples was measured at 405 nm using a Benchmark Microplate Reader (BioRad, Mississauga, ON). The concentration of the IFNγ vas calculated from the standard IFNγ curve, using recombinant murine IFNγ (Pharmingen).

[3] = tested on: PAM212 cells; assay: FACS of transfected PAM212 cells: GFP fluorescent cells and cell viability; format: cell-based, murine
Experimental: PAM212 cells were seeded on 6-well plates (Costar, Corning N.Y.) at a density of 1×10^6 cells/well density and grown to 60-80% confluency. The supplemented MEM was changed to MEM one hour prior to transfection. The transfection mixes were prepared with 1 μg pGTmCMV.IFN-GFP, using the 16-3-16 gemini cationic surfactant and DOPE liposomes at plasmid DNA:gemini cationic surfactant charge ratio of 1:5, 1:10, 1:20 or 1:40, as described earlier, keeping the concentration of the reagents constant. The cells were detached using Versene solution containing 0.05% trypsin (Sigma), pelleted at 4° C. and 1000 g for 5 minutes, washed twice with PBS and resuspended in Fa-cola (10 mM PBS pH 7.2, 0.2% gelatin, 0.03% sodium azide). Triplicate samples were pooled. The cell sorter was calibrated with non-transfected cells and 10^4 cells of each sample were counted.
The formulations were optimized for plasmid DNA:gemini surfactant charge ratio correlated with cell toxicity using the 16-3-16 compound. The optimal plasmid DNA:gemini surfactant charge ratio was determined by comparing the percentage of fluorescent cells (FIG. 5A) with cell viability (FIG. 5B). The cells were transfected with either transfection mixtures of the 16-3-16 gemini surfactant and DOPE at plasmid DNA:gemini surfactant charge ratio of 1:5, 1:10, 1:20 or 1:40, or Lipofectamine Plus™ Reagent (L), using 0.2 μg pGTmCMV.IFN-GFP, and compared to non-transfected cells (NT). Triplicate samples were pooled and 1×10^4 cells counted. […] At plasmid DNA:gemini surfactant charge ratio of 1:40 the transfection efficiency was 3.13%, however, cell viability fell to 20%. […] No fluorescence was detected in the non-transfected cells.

[4] = plasmid DNA:gemini surfactant charge ratio 1:40, with DOPE
[5] = plasmid:gemini surfactant charge ratio 1:10, with DOPE

| SMILES | Γ × 10^6 (surface excess concentration) [1] [mol/m^2] | CMC (critical micellar concentration) [1] [mM] | a (head group areas based on activity) [1] [nm^2/molecule] | α (degree of micelle ionization) [1] | Krafft point [1] [°C] | IFN-γ expression [2] [ng/5 × 10^5 cells] | transfection efficiency (in words) [2] | IFNγ levels versus the other compounds with longer linkers [2] | cell viability [3, 4] [%] | transfection efficiency (fluorescent cells) [3, 4] [%] | cell viability [3, 5] [%] | percentage of fluorescent cells [3, 5] [%] | distance between the cationic head groups [1] [nm] | IFNγ detection after transfection with single component alone ([2]; agent alone, or plasmid without transfection agents) |
| --- | --- | --- | --- | --- | --- | --- | --- | --- | --- | --- | --- | --- | --- | --- |
| CCCCCCCCCCCCCCCC[N+](C)(C)CCC[N+](C)(C)CCCCCCCCCCCCCCCC [16-3-16] | 1.08 | 0.026 ± 0.001 | 1.02 | 0.35 ± 0.02 | 42 | 1.63 ± 1.37 | highest activity | Significantly higher | 20 | 3.13 | 74 | 2.36 |  |  |
| CCCCCCCCCCCC[N+](C)(C)CCCCCCCCCCCCCCCC[N+](C)(C)CCCCCCCCCCCC.[Br-].[Br-] [12-16-12] | 0.83 | 0.12 ± 0.01 | 1.44 | 0.59 ± 0.08 | 24.3 | 0.49 ± 0.19 |  |  |  |  |  |  |  |  |
| CCCCCCCCCCCC[N+](C)(C)CCC[N+](C)(C)CCCCCCCCCCCC.[Br-].[Br-] [12-3-12] | 1.58 | 0.98 ± 0.04 | 0.98 | 0.23 ± 0.02 | 12.7 | 1.11 ± 0.65 | highest activity | Significantly higher |  |  |  |  | 0.49 |  |
| CCCCCCCC/C=C\CCCCCCCC(=O)OC[C@H](COP(=O)(O)OCCN)OC(=O)CCCCCCC/C=C\CCCCCCCC [DOPE, 1,2 dioleyl-sn-glycero-phosphatidylethanolamine, reference compound] |  |  |  |  |  |  |  |  |  |  |  |  |  | No IFNγ was detected |
| CCCCCCCCCCCC[N+](C)(C)CCCC[N+](C)(C)CCCCCCCCCCCC.[Br-].[Br-] [12-4-12] | 1.43 | 1.17 ± 0.04 | 1.10 | 0.26 ± 0.02 | 10.6 | 0.66 ± 0.32 |  | Significantly higher |  |  |  |  |  |  |
| CCCCCCCCCCCC[N+](C)(C)CCCCCCCCCC[N+](C)(C)CCCCCCCCCCCC.[Br-].[Br-] [12-10-12] | 0.75 | 0.62 ± 0.03 | 2.16 | 0.51 ± 0.06 | <0 | 0.29 ± 0.10 |  |  |  |  |  |  |  |  |
| CCCCCCCCCCCC[N+](C)(C)CCCCCCCCCCCC[N+](C)(C)CCCCCCCCCCCC [12-12-12] | 0.73 | 0.36 ± 0.03 | 2.14 | 0.56 ± 0.08 | 13.6 | 0.33 ± 0.16 |  |  |  |  |  |  |  |  |
| CCCCCCCCCCCC[N+](C)(C)CCCCCCCC[N+](C)(C)CCCCCCCCCCCC.[Br-].[Br-] [12-8-12] | 0.94 | 0.84 ± 0.03 | 1.78 | 0.46 ± 0.04 | <0 | 0.24 ± 0.12 |  |  |  |  |  |  |  |  |
| CCCCCCCCCCCC[N+](C)(C)CCCCCC[N+](C)(C)CCCCCCCCCCCC.[Br-].[Br-] [12-6-12] | 1.16 | 1.09 ± 0.04 | 1.40 | 0.34 ± 0.02 | <0 | 0.48 ± 0.17 |  |  |  |  |  |  | 0.91 |  |
